Results: ChEMBL document CHEMBL3596143, “Identification of tanshinone IIA as a natural monoacylglycerol lipase inhibitor by combined in silico and in vitro approach” (Medchemcomm, 2014)

Assays:
[1] = biological target: T1, Monoglyceride lipase (Homo sapiens) (UniProt Q99685); experiment: Inhibition of MAGL (unknown origin) at […] after 10 mins relative to control
T1 sequence (whole entry): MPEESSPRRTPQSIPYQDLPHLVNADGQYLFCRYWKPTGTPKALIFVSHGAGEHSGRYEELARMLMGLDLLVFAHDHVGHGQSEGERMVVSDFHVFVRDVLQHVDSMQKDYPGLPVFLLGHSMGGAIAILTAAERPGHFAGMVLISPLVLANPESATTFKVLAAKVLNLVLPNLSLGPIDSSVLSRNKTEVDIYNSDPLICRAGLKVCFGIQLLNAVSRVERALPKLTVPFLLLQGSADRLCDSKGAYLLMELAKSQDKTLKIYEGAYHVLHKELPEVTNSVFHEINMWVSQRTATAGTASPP

[2] = biological target: T1, Monoglyceride lipase (Homo sapiens); experiment: Inhibition of MAGL (unknown origin) at 125 uM after 10 mins relative to control
[3] = biological target: T1, Monoglyceride lipase (Homo sapiens); experiment: Inhibition of MAGL (unknown origin) at 250 uM after 10 mins relative to control
[4] = biological target: T1, Monoglyceride lipase (Homo sapiens); experiment: Inhibition of MAGL (unknown origin) at 500 uM after 10 mins relative to control
[5] = biological target: T1, Monoglyceride lipase (Homo sapiens); details: 2 mM
Description: Inhibition of MAGL (unknown origin) at 2 mM after 10 mins relative to control

[6] = biological target: T1, Monoglyceride lipase (Homo sapiens); experiment: (§1) Inhibition of MAGL (unknown origin) after 10 mins
[7] = biological target: T2, Monoglyceride lipase (Homo sapiens, UniProt Q99685); experiment: as §1
T2 sequence (Q99685 whole entry): T1 sequence (whole entry)

Row | Compound | inhibition [1] | inhibition [2] | inhibition [3] | inhibition [4] | further results
1 | Cc1coc2c1C(=O)C(=O)c1c-2ccc2c(C)cccc12 | 58% | 12% | 15% | 31% | 
2 | O=C(Oc1ccc([N+](=O)[O-])cc1)N1CCC(C(O)(c2ccc3c(c2)OCO3)c2ccc3c(c2)OCO3)CC1 |  |  |  |  | inhibition [5]: 94%
3 | Cc1coc2c1C(=O)C(=O)c1c-2ccc2c1CCCC2(C)C [TANSHINONE IIA] | 95% | 72% | 79% | 85% | inhibition [6]: Dose-dependent effect; IC50 [7]: 48 µM
4 | CC1(C)CC[C@]2(C(=O)O)CC[C@]3(C)C(=CC[C@@H]4[C@@]5(C)CC[C@H](O)C(C)(C)[C@@H]5CC[C@]43C)[C@@H]2C1 | 1% |  |  |  | 
5 | CC1(C)OC(=O)C=C[C@]2(C)[C@H]3CC[C@@]4(C)[C@H](c5ccoc5)OC(=O)[C@H]5O[C@]54[C@]3(C)C(=O)C[C@@H]12 | 4% |  |  |  | 
6 | O=c1c(-c2ccc(O)cc2)coc2c([C@@H]3O[C@H](CO)[C@@H](O)[C@H](O)[C@H]3O)c(O)ccc12 | 52% |  |  |  | 
